Series [1] deals with T1, mA1AR (Mus musculus, UniProt Q60612).
T1 sequence (Q60612 1-326): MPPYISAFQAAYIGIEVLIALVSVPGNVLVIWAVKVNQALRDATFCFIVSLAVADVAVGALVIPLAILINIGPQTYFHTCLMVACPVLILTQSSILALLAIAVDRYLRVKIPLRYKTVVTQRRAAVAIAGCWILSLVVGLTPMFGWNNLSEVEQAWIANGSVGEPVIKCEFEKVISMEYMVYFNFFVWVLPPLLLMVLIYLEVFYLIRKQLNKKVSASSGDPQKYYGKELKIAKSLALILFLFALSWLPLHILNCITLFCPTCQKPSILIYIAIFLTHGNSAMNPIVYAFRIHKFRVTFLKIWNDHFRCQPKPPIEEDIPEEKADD
Put plainly: Adenosine receptor binding, mA1AR. Conditions: for Binding selectivity for mA1AR: compared to mA3AR; for Ki: (m), read-out: A1AR % inhibition or Ki (converted).

Series [2] is described as follows: Plasma protein binding at 10 μM. The format is in vitro ADME, rat. Conditions: unbound percent ± standard deviation. As to the method: (§1) Plasma protein binding in human plasma, mouse plasma, and rat plasma was determined. Verapamil and warfarin served as positive controls. The results are expressed as unbound percent±standard deviation.
The test system of series [3] is wild-type C57BL/6J mice. Description: Hypothermia (Tb by telemetry) after ip dosing. The format is in vivo, mouse. To be noted: 3 mg/kg ip; average from dosing to 60 min; mean±SD. The procedure: (§2) Compounds were dosed ip. Tb and activity were measured by telemetry and the averages from dosing to 60 min were calculated. […] Data are for the highest dose used and are mean±SD from 3 to 22 mice/group (usually 5-7). P values are unpaired t-Test vs vehicle-treated controls assayed simultaneously. Vehicle data are mean±SD from all (n=83) vehicle treated mice.

Series [4] concerns wild-type C57BL/6J mice. Description: Locomotor activity by telemetry after ip dosing. The format is in vivo, mouse. To be noted: 3 mg/kg ip; average from dosing to 60 min; mean±SD. The procedure:
as §2

The nature of series [5]: Plasma protein binding at 10 μM. The format is in vitro ADME, mouse. To be noted: unbound percent ± standard deviation. The procedure: as §1
Another series concerns mice. Put plainly: Tail suspension test, immobility time. Format: in vivo, mouse. As to the method:
1 hour after administration of compounds, the mice were individually suspended by their tails for 6 minutes, and the average amount of time the mice were immobile was determined. […]

Series [6] can be described thus: Stability in simulated gastric fluid. The format is physicochemical. Conditions: pH 1.60, 37° C., after 120 min.
Series [7] concerns the target T2, mA3AR (Mus musculus, UniProt Q61618).
T2 sequence (Q61618 1-319): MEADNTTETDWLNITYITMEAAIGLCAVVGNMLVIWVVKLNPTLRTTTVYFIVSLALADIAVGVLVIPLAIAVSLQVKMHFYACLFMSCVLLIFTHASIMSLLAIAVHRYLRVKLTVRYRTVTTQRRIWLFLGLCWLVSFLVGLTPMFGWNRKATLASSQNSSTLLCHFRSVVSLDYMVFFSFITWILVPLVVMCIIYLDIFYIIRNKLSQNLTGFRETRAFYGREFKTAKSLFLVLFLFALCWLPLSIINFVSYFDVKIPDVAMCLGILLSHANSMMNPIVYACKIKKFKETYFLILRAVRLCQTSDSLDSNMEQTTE
Put plainly: Guanine nucleotide ([35S]GTPγS) binding assay. The format is biochemical. To be noted: effect of 10 μM test compound as % of 10 μM 16. As to the method: (§3) cLogP was calculated using ChemDraw Professional, v. 16.0. Binding selectivity for mA1Ar is expressed in terms of fold, compared to mA3AR (Data from Table 1).
Background: GTPγS resists hydrolysis and so accumulates on activated G proteins.

Series [8] deals with T1, mA1AR. Put plainly: Guanine nucleotide ([35S]GTPγS) binding assay. The format is biochemical. As to the method: as §3
Series [9] in a line: Plasma protein binding at 10 μM. The format is in vitro ADME, human. Conditions: unbound percent ± standard deviation. As to the method: as §1
For another series, the target named is rA2AAR (Rattus norvegicus, UniProt P30543). Description: Adenosine receptor binding, rA2AAR. To be noted: (r); values without % sign (Ki); read-out: A2AAR % inhibition (converted).
The next series concerns the target T3, rA1AR (Rattus norvegicus, UniProt P25099).
T3 sequence (P25099 1-326): T1 sequence (Q60612 1-326) with E151V, A155D, I157R, E316D, I319L, D325E
Put plainly: Adenosine receptor binding, rA1AR. To be noted: (r), read-out: A1AR % inhibition or Ki (converted).

In series [10] the target is T2, mA3AR. Put plainly: Adenosine receptor binding, mA3AR. Conditions: (m); Ki; read-out: A3AR % inhibition or Ki (converted).
The target in the next series is rA3AR (Rattus norvegicus, UniProt P28647). Description: Adenosine receptor binding, rA3AR. To be noted: (r), read-out: A3AR % inhibition or Ki (converted).
A further series addresses T4, hA3AR (Homo sapiens, UniProt P0DMS8).
T4 construct: expressed in transfected cells; host or cells: CHO
T4 sequence (P0DMS8 1-318): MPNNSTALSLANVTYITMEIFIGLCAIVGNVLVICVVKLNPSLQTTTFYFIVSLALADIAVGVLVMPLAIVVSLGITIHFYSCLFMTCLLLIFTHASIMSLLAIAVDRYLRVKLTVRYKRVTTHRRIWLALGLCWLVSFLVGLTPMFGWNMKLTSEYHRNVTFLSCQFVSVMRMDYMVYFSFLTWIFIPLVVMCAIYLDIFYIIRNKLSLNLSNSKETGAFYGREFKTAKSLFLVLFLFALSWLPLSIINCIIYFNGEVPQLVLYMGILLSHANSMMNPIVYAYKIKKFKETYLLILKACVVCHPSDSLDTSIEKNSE
Description: Radioligand binding in membranes of CHO cells expressing hA3AR.

The target in the next series is T5, hA2AAR (Homo sapiens, UniProt P29274).
T5 construct: expressed in transfected cells; host or cells: HEK293
Description: Radioligand binding in membranes of HEK293 cells expressing hA2AAR. Conditions: read-out: A2AAR % inhibition; for Ki: (h), values without % sign (Ki).

The next series concerns the target T6, hA1AR (Homo sapiens, UniProt P30542).
T6 construct: expressed in transfected cells; host or cells: CHO
T6 sequence (P30542 1-326): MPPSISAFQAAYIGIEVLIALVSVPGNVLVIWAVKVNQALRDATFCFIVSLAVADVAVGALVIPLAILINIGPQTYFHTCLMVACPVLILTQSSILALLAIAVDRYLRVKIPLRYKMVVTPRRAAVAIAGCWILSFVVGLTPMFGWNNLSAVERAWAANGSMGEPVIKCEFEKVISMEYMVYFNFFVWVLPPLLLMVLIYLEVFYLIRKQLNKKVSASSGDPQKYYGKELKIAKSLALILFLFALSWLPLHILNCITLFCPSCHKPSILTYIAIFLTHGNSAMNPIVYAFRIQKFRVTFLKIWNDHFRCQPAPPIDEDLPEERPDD
Put plainly: Radioligand binding in membranes of CHO cells expressing hA1AR, [3H]N6-R-phenylisopropyladenosine. Conditions: (h); Ki; read-out: A1AR % inhibition or Ki.

Series [11] concerns the target dopamine transporter (DAT) (Homo sapiens, UniProt Q01959). Put plainly: Off-target interaction determined by the PDSP. The format is binding. To be noted: read-out: Off-target, receptor (h, unless noted) (Ki, μM): DAT.
Series [12] concerns the target norepinephrine transporter (NET) (Homo sapiens, UniProt P23975). Description: Off-target interaction determined by the PDSP. Conditions: read-out: Off-target, receptor (h, unless noted) (Ki, μM): NET. The format is binding.
The next series deals with histamine receptor H1 (Homo sapiens, UniProt P35367). Description: Off-target interaction determined by the PDSP. Format: binding. Conditions: read-out: Off-target, receptor (h, unless noted) (Ki, μM): H1.
The target in the next series is sigma receptor σ2 (UniProt Q5BJF2). Description: Off-target interaction determined by the PDSP. Conditions: read-out: Off-target, receptor (h, unless noted) (Ki, μM): σ2. Format: binding, human.
The target in a further series is mA2AAR (Mus musculus, UniProt Q60613). Put plainly: Adenosine receptor binding, mA2AAR. To be noted: read-out: A2AAR % inhibition (converted).
The test system of series [13] is off-target receptors (PDSP). Description: Off-target interactions determined by the PDSP, whole screen. Format: binding, human. Conditions: no off-target interaction listed.
The mark [14] stands for this setting: 0.3 mg/kg i.p., 1 hour after administration, 6 min suspension.
Setting [15] is: (h), Ki, read-out: A3AR % inhibition or Ki.

Positions count from the first letter of the chain named. Where two headings read alike, the source gives them in different places. Some results are limits rather than exact numbers.

T5 sequence (P29274 whole entry): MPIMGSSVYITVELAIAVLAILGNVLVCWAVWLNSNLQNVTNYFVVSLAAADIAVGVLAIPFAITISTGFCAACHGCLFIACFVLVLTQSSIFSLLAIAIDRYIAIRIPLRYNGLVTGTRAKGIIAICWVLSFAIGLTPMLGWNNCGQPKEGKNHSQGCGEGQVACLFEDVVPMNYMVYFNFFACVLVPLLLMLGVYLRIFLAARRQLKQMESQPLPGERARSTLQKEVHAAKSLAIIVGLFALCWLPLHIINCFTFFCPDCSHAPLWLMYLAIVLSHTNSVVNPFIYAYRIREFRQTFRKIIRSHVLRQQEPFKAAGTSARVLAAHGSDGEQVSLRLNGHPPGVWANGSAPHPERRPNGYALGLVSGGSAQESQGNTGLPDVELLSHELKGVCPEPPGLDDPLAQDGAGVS
rA2AAR, sequence (P30543 whole entry): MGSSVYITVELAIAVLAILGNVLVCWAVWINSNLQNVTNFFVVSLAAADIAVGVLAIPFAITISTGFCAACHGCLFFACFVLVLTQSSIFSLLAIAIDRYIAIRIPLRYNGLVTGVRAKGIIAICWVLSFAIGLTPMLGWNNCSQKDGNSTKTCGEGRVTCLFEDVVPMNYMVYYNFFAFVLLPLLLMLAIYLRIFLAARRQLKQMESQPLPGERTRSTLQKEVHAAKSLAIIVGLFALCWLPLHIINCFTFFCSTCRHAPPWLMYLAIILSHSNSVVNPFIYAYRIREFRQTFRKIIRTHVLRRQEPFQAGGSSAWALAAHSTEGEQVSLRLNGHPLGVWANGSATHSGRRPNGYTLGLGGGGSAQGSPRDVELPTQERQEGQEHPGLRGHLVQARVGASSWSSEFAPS
rA3AR, sequence (P28647 whole entry): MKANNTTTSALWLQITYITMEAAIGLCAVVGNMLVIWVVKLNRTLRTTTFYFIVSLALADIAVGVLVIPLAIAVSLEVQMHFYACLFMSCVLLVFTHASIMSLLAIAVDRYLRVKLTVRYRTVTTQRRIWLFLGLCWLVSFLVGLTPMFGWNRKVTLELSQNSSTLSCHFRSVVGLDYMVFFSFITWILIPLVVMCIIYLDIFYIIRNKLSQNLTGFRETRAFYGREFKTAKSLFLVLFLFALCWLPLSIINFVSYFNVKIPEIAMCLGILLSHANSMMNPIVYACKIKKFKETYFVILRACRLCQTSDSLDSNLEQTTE
norepinephrine transporter (NET), sequence (P23975 whole entry): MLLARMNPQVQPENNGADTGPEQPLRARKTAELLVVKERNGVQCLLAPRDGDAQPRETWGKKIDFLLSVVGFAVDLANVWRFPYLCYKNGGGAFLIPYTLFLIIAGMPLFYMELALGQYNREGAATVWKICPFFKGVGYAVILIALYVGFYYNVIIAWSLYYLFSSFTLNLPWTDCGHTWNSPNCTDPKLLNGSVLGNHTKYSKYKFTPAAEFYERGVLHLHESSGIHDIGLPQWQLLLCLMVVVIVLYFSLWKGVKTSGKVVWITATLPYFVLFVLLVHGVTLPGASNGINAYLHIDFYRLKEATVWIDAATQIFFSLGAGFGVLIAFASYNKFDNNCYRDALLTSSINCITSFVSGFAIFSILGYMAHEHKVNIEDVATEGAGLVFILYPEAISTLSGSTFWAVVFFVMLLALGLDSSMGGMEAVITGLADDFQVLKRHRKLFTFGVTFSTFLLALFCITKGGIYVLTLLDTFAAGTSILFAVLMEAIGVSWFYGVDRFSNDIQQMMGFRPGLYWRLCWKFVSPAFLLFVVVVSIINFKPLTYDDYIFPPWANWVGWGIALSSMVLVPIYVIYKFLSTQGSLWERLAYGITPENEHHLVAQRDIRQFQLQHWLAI
mA2AAR, sequence (Q60613 whole entry): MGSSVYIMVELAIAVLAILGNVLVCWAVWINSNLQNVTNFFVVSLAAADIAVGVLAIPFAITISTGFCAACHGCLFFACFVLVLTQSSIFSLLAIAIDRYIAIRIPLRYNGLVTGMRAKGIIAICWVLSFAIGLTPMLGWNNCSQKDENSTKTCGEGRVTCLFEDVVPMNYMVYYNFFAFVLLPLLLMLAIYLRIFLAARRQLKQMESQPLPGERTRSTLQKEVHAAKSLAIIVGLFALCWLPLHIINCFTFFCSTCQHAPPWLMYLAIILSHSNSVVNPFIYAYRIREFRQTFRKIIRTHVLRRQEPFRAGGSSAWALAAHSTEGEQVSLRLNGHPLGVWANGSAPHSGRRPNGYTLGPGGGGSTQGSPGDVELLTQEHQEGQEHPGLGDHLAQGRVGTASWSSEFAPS
histamine receptor H1, sequence (P35367 whole entry): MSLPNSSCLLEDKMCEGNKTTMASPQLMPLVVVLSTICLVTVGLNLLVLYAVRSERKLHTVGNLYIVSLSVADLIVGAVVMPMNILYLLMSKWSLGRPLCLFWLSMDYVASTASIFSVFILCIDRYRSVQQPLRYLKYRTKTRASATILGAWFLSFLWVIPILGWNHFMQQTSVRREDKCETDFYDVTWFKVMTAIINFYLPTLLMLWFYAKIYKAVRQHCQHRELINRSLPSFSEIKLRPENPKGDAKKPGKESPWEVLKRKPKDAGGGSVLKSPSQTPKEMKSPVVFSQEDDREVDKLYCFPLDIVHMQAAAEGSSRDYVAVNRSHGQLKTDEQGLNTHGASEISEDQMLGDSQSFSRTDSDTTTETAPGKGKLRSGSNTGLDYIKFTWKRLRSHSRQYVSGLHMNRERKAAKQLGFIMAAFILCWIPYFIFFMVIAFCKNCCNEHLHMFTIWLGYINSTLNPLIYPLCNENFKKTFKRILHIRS
dopamine transporter (DAT), sequence (Q01959 whole entry): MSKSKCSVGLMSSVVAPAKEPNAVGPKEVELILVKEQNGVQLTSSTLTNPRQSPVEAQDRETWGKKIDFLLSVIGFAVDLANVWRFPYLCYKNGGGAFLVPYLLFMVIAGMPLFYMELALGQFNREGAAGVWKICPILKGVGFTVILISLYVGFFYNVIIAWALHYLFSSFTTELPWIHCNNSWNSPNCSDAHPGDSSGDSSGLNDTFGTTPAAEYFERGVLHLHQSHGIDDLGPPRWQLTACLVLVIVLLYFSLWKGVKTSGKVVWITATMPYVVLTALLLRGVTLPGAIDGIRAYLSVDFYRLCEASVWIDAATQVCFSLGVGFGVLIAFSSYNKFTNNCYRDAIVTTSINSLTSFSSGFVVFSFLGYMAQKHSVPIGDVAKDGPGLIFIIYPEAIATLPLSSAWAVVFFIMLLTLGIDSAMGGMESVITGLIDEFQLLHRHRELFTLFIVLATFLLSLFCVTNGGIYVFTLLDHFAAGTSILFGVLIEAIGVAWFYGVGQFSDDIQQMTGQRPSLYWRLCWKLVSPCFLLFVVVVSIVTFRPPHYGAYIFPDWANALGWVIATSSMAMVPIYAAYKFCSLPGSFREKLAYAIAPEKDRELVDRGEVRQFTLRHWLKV

As a reminder, the Emax is the greatest response seen or fitted, relative to the assay's reference. As to `OC[C@H]1O[C@@H](n2cnc3c(NC(C4CCC4)C4CCC4)nc(Cl)nc32)[C@H](O)C1O` (stereo in doubt) [Compound 12, (2R,3R,4R,5R)-2-(2-Chloro-6-((dicyclobutylmethyl)amino)-9H-purin-9-yl)-5-(hydroxymethyl)tetrahydrofuran-3,4-diol], the “Binding selectivity for mA1AR” value at mA1AR [1] is reported as “(1000) fold”. Further, in [2], the “rat, % free” value is on record as 4.64 ± 0.06%. Besides, the “Tb (° C.)” value in the series with wild-type C57BL/6J mice [3] amounted to 35.5 ± 0.8 °C. In addition, the “Activity (counts)” value in the series with wild-type C57BL/6J mice [4] worked out at 13.5 ± 3.5 counts. Further, the “mouse, % free” value in series [5] turned out to be 4.74 ± 0.67%. Besides, in the series with mice (setting [14]), the “average immobility time relative to mice treated with 10 mg/kg of fluoxetine” value was “approximately ⅔” and the “average immobility time relative to the control group of mice” value was “approximately ½”. Moreover, the “initial amount present in simulated gastric fluid” value in series [6] is on record as 100%. The same compound gave an Emax at 10 µM at mA3AR [7] of 63 ± 5%. At mA1AR [8], this compound yielded an Emax at 10 µM of 90 ± 19%. Also, the “human, % free” value in [9] is listed as 5.81 ± 0.39%.
In the case of `O[C@@H]1[C@H](O)[C@@H](CCl)O[C@H]1n1cnc2c(NC3CC4CCC3C4)ncnc21` (some centres unmarked) [Compound 3, reference compound], the Ki on mA1AR [1] was 0.14 nM; on rA2AAR, 477 nM; at rA1AR it was 0.34 nM; on mA3AR [10], 424 nM; on rA3AR, 282 nM; at hA3AR it was 915 ± 299 nM. Moreover, on hA2AAR, the Ki is greater than 10000 nM.
`OC[C@H]1O[C@@H](n2cnc3c(NC(C4CC4)C4CC4)ncnc32)[C@H](O)[C@@H]1O` [Compound 8]: the Ki on rA2AAR is 1370 nM; at hA1AR it was 0.85 ± 0.27 nM; on hA3AR, 41.3 ± 5.3 nM; at hA2AAR it was 1470 ± 380 nM.
For `OC[C@H]1O[C@@H](n2cnc3c(NC(C4CCC4)C4CCC4)ncnc32)[C@H](O)[C@@H]1O` [Compound 9, (2R,3R,4R,5R)-2-(6-((Dicyclobutylmethyl)amino)-9H-purin-9-yl)-5-(hydroxymethyl)tetrahydrofuran-3,4-diol], the Ki at hA1AR was 2.14 ± 0.52 nM; at mA3AR [10], 897 nM; in series [11], 1.78 µM; in series [12], 4.82 µM; at hA2AAR, 3550 ± 440 nM.
Turning to `Nc1ncnc2c1ncn2[C@@H]1O[C@H](C(=O)NC2CC2)[C@@H](O)[C@H]1O` [Compound 17, reference compound], the Ki on hA1AR came out at 1.9 nM; on hA3AR (setting [15]), 180 ± 50 nM; on hA2AAR, 50 ± 10 nM; on histamine receptor H1 it was 7.88 µM; on sigma receptor σ2, 4.35 µM.
The term inhibition denotes the relative decrease from the control value, in per cent. For `O[C@H]1[C@H](n2cnc3c(N[C@H]4C[C@H]5CC[C@@H]4C5)nc(Cl)nc32)[C@H]2C[C@@]2(CCl)[C@H]1O` [Compound 31, (1S,2R,3S,4R,5S)-4-(6-(((1R,2S,4S)-Bicyclo[2.2.1]heptan-2-yl)amino)-2-chloro-9H-purin-9-yl)-1-(chloromethyl)bicyclo[3.1.0]hexane-2,3-diol], the Ki is 1.86 nM at mA1AR [1], 44.8 ± 1.3 nM on hA1AR, 503 nM on mA3AR [10] and 456 ± 201 nM on hA3AR (setting [15]). Moreover, on mA1AR [1], the “Binding selectivity for mA1AR” value was “(270) fold”. For the same compound, the “rat, % free” value in series [2] is reported as 2.53 ± 0.45%. For the same compound, in the series on wild-type C57BL/6J mice [3], the “Tb (° C.)” value stood at 36.6 ± 0.5 °C. The “Activity (counts)” value in the series with wild-type C57BL/6J mice [4] is reported as 16.8 ± 3.6 counts. Further, in series [5], the “mouse, % free” value turned out to be 2.95 ± 0.84%. The inhibition at 10 µM on mA2AAR was 15%; at hA2AAR, 54 ± 8%. In addition, the “Off-target, receptor (h, unless noted)” value in series [13] is listed as “none”. Moreover, the values for the Emax at 10 µM at mA3AR [7] and on mA1AR [8] were 50 ± 11% and 123 ± 16%, respectively. The “human, % free” value in series [9] was 4.04 ± 0.60%.
As for `O[C@@H]1[C@H](O)[C@@H]2C[C@@H]2[C@H]1n1cnc2c(NC(C3CC3)C3CC3)nc(Cl)nc21` [MRS5474, reference compound], the “average immobility times versus the control group of mice” value with mice (3, 10 or 20 mg/kg i.p., 1 hour after administration) is on record as “lower than the average immobility times exhibited by the control group of mice”. Also, in the series with mice (3, 10 or 20 mg/kg i.p., fluoxetine 10 mg/kg), the “average immobility times versus mice treated with fluoxetine” value is reported as “approximately twice longer”. Moreover, in series [6], the “initial amount present in simulated gastric fluid” value is reported as 51%.

(Values after patent US12378248B2 (The United States of America, as represented by the …, priority 2018, dated 2025).)
